Experimental data as given in publication PMC11871066, “Structure-based discovery of hydrocarbon-stapled paxillin peptides that block FAK scaffolding in cancer” (Nature Communications, 2025).

Key:
in vitro = conditions: plasma
kinases = conditions: 1 µM, ref Cromm et al, 2018; cited from earlier work
Method: page 11: Comment 5: Reviewer Comment: “Line 299: “indicating potential [defactinib] toxicity beyond the 2.5 μM”. […] The high non- selectivity of defactinib at low micromolar doses indicates the potential of off-target effects and toxicity beyond 2.5 µM.

Row | Compound | fraction unbound (in vitro) | number of kinases bound with more than 65% inhibition (kinases)
1 | CCCCCCCCCCCCCC(=O)N[C@@H](CC(N)=O)C(=O)N[C@@H](CC(C)C)C(=O)N[C@]1(C)CCCCCCC=CCCC[C@@](C)(C(=O)N[C@@H](CCC(=O)O)C(=O)N[C@@H](CC(C)C)C(=O)N[C@@H](CC(N)=O)C(N)=O)NC(=O)[C@H](CC(C)C)NC(=O)[C@H](CC(C)C)NC(=O)[C@H](CCCNC(=N)N)NC(=O)[C@H](CC(=O)O)NC(=O)[C@H](CC(C)C)NC(=O)[C@H](CCC(=O)O)NC1=O [compound 2012] | < 0.01 | –
2 | CNC(=O)c1ccc(Nc2ncc(C(F)(F)F)c(NCc3nccnc3N(C)S(C)(=O)=O)n2)cc1 [defactinib] | – | ≥ 100
